For 14 molecules, TGI and GI50 results are on record in PubChem BioAssay (NCI).

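Method: 48-hour compound exposure of cells in 96-well plates, five concentrations, linear interpolation of endpoints. The concentration for 50% growth inhibition is given as GI50. TGI denotes the concentration required for complete inhibition of growth.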

Some test systems named below: SF-295 CNS; IGROV1 ovarian; NCI/ADR-RES ovarian; COLO 205 colon; K-562 leukemia; SK-MEL-28 melanoma; HCT-15 colon; EKVX NSCLC; HOP-62 NSCLC; A498 renal.
Experiment in all cases: NCI tumour cell line growth inhibition, 48 h

In the case of `Cc1ccc(S(=O)(=O)NC(=O)NCCc2ccc(O)c(O)c2)cc1`, the TGI in the experiment on SF-295 CNS, in the experiment with IGROV1 ovarian, in the experiment with NCI/ADR-RES ovarian, in the experiment on COLO 205 colon, in the experiment with K-562 leukemia and in the experiment with SK-MEL-28 melanoma was greater than 100 µM throughout. Further, the TGI with HCT-15 colon, in the experiment with EKVX NSCLC, with HOP-62 NSCLC and with A498 renal was greater than 100 µM each time.
Consider `Cn1cc(-c2nc(-c3c[nH]c4ccncc34)cs2)c2ccccc21`, for which the GI50 in the experiment with SF-295 CNS was 1.77 µM; in the experiment with NCI/ADR-RES ovarian it was 1.99 µM; in the experiment with SK-MEL-28 melanoma it was 1.71 µM; in the experiment with HCT-15 colon, 1.37 µM; in the experiment on EKVX NSCLC it was 1.64 µM; in the experiment on A498 renal it was 1.86 µM. In addition, the TGI in the experiment with SF-295 CNS stood at 3.32 µM; with NCI/ADR-RES ovarian it was 4.02 µM; with SK-MEL-28 melanoma, 3.14 µM; in the experiment on HCT-15 colon, 2.81 µM; in the experiment with EKVX NSCLC, 3.36 µM; in the experiment on A498 renal it was 3.3 µM.
On to `CC1(C)OC2CC3COC(=O)C3CC2O1` (stereo not drawn), for which the TGI with SF-295 CNS, in the experiment with IGROV1 ovarian, in the experiment with COLO 205 colon, in the experiment on K-562 leukemia, in the experiment on SK-MEL-28 melanoma and with HCT-15 colon was greater than 100 µM each time. In addition, the TGI with EKVX NSCLC, in the experiment with HOP-62 NSCLC and in the experiment with A498 renal was greater than 100 µM each time.
On to `CCCCCCCCCCCCCCCCNCC(O)CN` (stereo not drawn), for which the TGI in the experiment with SF-295 CNS was 6.93 µM; in the experiment with IGROV1 ovarian, 18.9 µM; in the experiment on NCI/ADR-RES ovarian it was 4.72 µM; in the experiment on COLO 205 colon, 3.81 µM; in the experiment with K-562 leukemia it was 3.35 µM; with SK-MEL-28 melanoma it was 25.8 µM. In addition, the TGI in the experiment with HCT-15 colon came to 4.38 µM; with EKVX NSCLC, 44.6 µM; in the experiment on HOP-62 NSCLC, 33.4 µM; in the experiment with A498 renal, 41.9 µM.
As for `Nc1ncnc2c1sc(=S)n2-c1ccccc1`, the TGI in the experiment with SF-295 CNS, in the experiment on IGROV1 ovarian, with COLO 205 colon, in the experiment with K-562 leukemia, in the experiment on SK-MEL-28 melanoma and in the experiment with HCT-15 colon was greater than 100 µM in each case. The TGI in the experiment with EKVX NSCLC, in the experiment with HOP-62 NSCLC and with A498 renal was greater than 100 µM throughout.
`C[N+](C)=c1ccc2nc3c(ccc4ccccc43)oc-2c1`: the TGI in the experiment with SF-295 CNS was 29 µM; in the experiment with IGROV1 ovarian, 17.2 µM; with COLO 205 colon, greater than 57.9 µM; in the experiment on K-562 leukemia, 9.39 µM; with SK-MEL-28 melanoma, 28.4 µM; in the experiment on HCT-15 colon, 34.6 µM. Moreover, the figures for the TGI in the experiment with EKVX NSCLC, in the experiment on HOP-62 NSCLC and in the experiment on A498 renal were 37.3 µM, 34.2 µM and 32.6 µM, respectively.
For `NC(=O)COc1c(Br)cc(Br)cc1Br`, the TGI in the experiment on SF-295 CNS, with COLO 205 colon, in the experiment with K-562 leukemia, in the experiment on SK-MEL-28 melanoma, with HCT-15 colon and in the experiment on EKVX NSCLC was greater than 100 µM in each case. For the same molecule, the TGI in the experiment with HOP-62 NSCLC was greater than 100 µM.
Take `O=C(N/N=C\c1cccs1)c1ccncc1`: the TGI in the experiment on SF-295 CNS, with IGROV1 ovarian, in the experiment with NCI/ADR-RES ovarian, in the experiment with COLO 205 colon, in the experiment on K-562 leukemia and in the experiment with SK-MEL-28 melanoma was greater than 100 µM each time. Besides, the TGI with HCT-15 colon, in the experiment with EKVX NSCLC, with HOP-62 NSCLC and with A498 renal was greater than 100 µM throughout.
Regarding `COc1ccc(C2S/C(=C\c3cccc(OC)c3)C(=O)N2NC(=O)Cc2ccccc2)cc1` (stereo not drawn), the TGI with SF-295 CNS, in the experiment on IGROV1 ovarian, with COLO 205 colon, with K-562 leukemia, in the experiment on SK-MEL-28 melanoma and in the experiment with HCT-15 colon was greater than 100 µM throughout. For the same molecule, the TGI with HOP-62 NSCLC and in the experiment with A498 renal was greater than 100 µM in each case.
With `C=CCNc1nc(O)c(/C=C2\C=Nc3ncccc32)s1`, the GI50 in the experiment with SF-295 CNS was 2.5 µM; in the experiment with IGROV1 ovarian, 2.86 µM; in the experiment on NCI/ADR-RES ovarian, 5.05 µM; in the experiment with K-562 leukemia it was 4.26 µM; in the experiment with SK-MEL-28 melanoma it was 2.52 µM; in the experiment on HCT-15 colon, 2.62 µM. The values for the GI50 with EKVX NSCLC, in the experiment on HOP-62 NSCLC and in the experiment with A498 renal were 3.4 µM, 1.84 µM and 1.5 µM, respectively. The TGI in the experiment with SF-295 CNS was greater than 100 µM; in the experiment with IGROV1 ovarian, greater than 100 µM; in the experiment on NCI/ADR-RES ovarian, greater than 100 µM; with K-562 leukemia, greater than 100 µM; in the experiment on SK-MEL-28 melanoma it was 9.14 µM; in the experiment with HCT-15 colon, greater than 100 µM. Moreover, the TGI was greater than 100 µM in the experiment with EKVX NSCLC, 5.77 µM in the experiment on HOP-62 NSCLC and 3.7 µM in the experiment on A498 renal.
Turning to `COc1cc(OCc2nc3cc(C(F)(F)F)ccc3nc2-c2ccccc2)cc(OC)c1OC`, the TGI in the experiment on SF-295 CNS, with IGROV1 ovarian, with NCI/ADR-RES ovarian, in the experiment with COLO 205 colon, in the experiment on K-562 leukemia and in the experiment on SK-MEL-28 melanoma was greater than 100 µM throughout. In addition, the TGI in the experiment on HCT-15 colon, in the experiment on EKVX NSCLC and with A498 renal was greater than 100 µM in each case.
Take `O=C(NC12CC3CC(CC(C3)C1)C2)C(=O)c1c[nH]c2ccc(Br)cc12`: the TGI in the experiment on SF-295 CNS is 19.8 µM; in the experiment with IGROV1 ovarian, greater than 100 µM; in the experiment with COLO 205 colon, 45.1 µM; in the experiment with K-562 leukemia, 47.2 µM; in the experiment with SK-MEL-28 melanoma it was greater than 100 µM; in the experiment with HCT-15 colon it was greater than 100 µM. In the experiment with EKVX NSCLC, this molecule had a TGI greater than 100 µM.
For `O=S(=O)(c1ccccc1)c1nccs1`, the TGI in the experiment on SF-295 CNS, in the experiment on IGROV1 ovarian, with COLO 205 colon, with K-562 leukemia, in the experiment on SK-MEL-28 melanoma and in the experiment on HCT-15 colon was greater than 100 µM throughout. The TGI in the experiment with EKVX NSCLC, in the experiment with HOP-62 NSCLC and in the experiment on A498 renal was greater than 100 µM throughout.
Take `CCOP(=O)(OCC)/C(C#N)=C\c1ccsc1`: the TGI in the experiment on SF-295 CNS, with COLO 205 colon, with SK-MEL-28 melanoma, in the experiment on HCT-15 colon, with EKVX NSCLC and in the experiment on HOP-62 NSCLC was greater than 100 µM throughout.
